{"source": "paper PMC11591901", "about": "(Biomolecules, 2024)", "key": {"[1]": {"biological_target": "T1, butyrylcholinesterase from equine serum (eqBChE, E.C. 3.1.1.8) (Equus caballus, UniProt P81908)", "T1 construct": "butyrylcholinesterase from equine serum (eqBChE, E.C. 3.1.1.8); purchased Sigma Aldrich; host or cells: equine serum", "T1 sequence (P81908 whole entry)": "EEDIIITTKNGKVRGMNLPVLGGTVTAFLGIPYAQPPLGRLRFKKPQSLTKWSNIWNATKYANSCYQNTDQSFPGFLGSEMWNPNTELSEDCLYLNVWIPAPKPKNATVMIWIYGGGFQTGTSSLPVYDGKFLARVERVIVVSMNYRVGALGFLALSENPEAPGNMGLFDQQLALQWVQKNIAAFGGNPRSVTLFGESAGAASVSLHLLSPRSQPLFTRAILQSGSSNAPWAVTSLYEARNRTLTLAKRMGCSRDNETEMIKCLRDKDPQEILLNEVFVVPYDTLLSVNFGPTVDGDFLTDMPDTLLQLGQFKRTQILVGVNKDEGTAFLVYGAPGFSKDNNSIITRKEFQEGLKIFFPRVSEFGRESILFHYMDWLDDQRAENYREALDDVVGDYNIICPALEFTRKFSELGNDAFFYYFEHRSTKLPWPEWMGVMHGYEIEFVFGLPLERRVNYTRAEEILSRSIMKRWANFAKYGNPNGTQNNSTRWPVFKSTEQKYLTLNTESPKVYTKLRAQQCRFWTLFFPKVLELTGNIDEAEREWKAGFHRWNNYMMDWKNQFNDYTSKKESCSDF", "test": "biochemical"}, "[2]": {"biological_target": "Acetylcholinesterase from electric eel (eeAChE, type VI-S) (Electrophorus electricus, UniProt O42275)", "sequence (O42275 24-633)": "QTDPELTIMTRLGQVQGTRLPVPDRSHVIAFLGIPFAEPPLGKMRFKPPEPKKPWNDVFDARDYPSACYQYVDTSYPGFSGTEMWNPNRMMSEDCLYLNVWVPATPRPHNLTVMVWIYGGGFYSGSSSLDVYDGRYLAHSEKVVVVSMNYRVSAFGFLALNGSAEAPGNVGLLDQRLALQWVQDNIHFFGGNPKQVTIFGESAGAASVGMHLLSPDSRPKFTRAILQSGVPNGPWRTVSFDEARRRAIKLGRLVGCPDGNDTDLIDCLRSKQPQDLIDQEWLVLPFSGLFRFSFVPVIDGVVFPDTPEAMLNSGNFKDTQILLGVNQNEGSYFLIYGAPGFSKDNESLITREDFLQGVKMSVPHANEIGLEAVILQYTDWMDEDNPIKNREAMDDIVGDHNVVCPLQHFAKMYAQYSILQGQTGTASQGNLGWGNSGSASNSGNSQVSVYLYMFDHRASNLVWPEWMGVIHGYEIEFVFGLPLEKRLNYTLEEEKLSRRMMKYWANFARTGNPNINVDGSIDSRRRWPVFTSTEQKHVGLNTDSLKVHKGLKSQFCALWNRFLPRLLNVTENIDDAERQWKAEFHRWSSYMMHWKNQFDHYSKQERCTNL", "test": "biochemical"}, "[3]": {"details": "eqBChE, Ellman assay, triplicate"}, "[4]": {"details": "eeAChE, Ellman assay, triplicate"}}, "note": "Read-outs that look alike come from different tables or passages of the source.", "data": [{"smiles": "Cc1ccc(Cn2nnc3ccc4sccc4c32)cc1", "note": "[Compound 14, 1-(4-methylbenzyl)-1H-thieno [3’,2’:3,4]benzo [1,2-d][1,2,3]triazole]", "values": [{"measurement": "IC50", "setting": "[1]; [3]", "result": 24.3, "unit": "µM"}, {"measurement": "IC50", "setting": "[2]; [4]", "result": 117, "unit": "µM"}]}, {"smiles": "Clc1ccc(Cn2nnc3ccc4sccc4c32)cc1", "note": "[Compound 15, 1-(4-chlorobenzyl)-1H-thieno [3’,2’:3,4]benzo [1,2-d][1,2,3]triazole]", "values": [{"measurement": "IC50", "setting": "[1]; [3]", "result": 34.6, "unit": "µM"}, {"measurement": "IC50", "setting": "[2]; [4]", "result": 77, "unit": "µM"}]}, {"smiles": "Cc1cccc(Cn2nnc3ccc4sccc4c32)c1", "note": "[Compound 16, 1-(3-methylbenzyl)-1H-thieno [3’,2’:3,4]benzo [1,2-d][1,2,3]triazole]", "values": [{"measurement": "IC50", "setting": "[1]; [3]", "result": 2.9, "unit": "µM"}, {"measurement": "IC50", "setting": "[2]; [4]", "result": 77.1, "unit": "µM"}]}, {"smiles": "Cc1ccc(Cn2nnc3ccc4sc(C)cc4c32)cc1", "note": "[Compound 17, 7-methyl-1-(4-methylbenzyl)-1H-thieno [3’,2’:3,4]benzo [1,2-d][1,2,3]triazole]", "values": [{"measurement": "IC50", "setting": "[1]; [3]", "result": 57.6, "unit": "µM"}, {"measurement": "IC50", "setting": "[2]; [4]", "result": "> 250", "unit": "µM"}]}, {"smiles": "Cc1cc2c(ccc3nnn(Cc4ccc(Cl)cc4)c32)s1", "note": "[Compound 18, 1-(4-chlorobenzyl)-7-methyl-1H-thieno [3’,2’:3,4]benzo [1,2-d][1,2,3]triazole]", "values": [{"measurement": "IC50", "setting": "[1]; [3]", "result": 59, "unit": "µM"}, {"measurement": "IC50", "setting": "[2]; [4]", "result": "> 100", "unit": "µM"}]}, {"smiles": "Cc1cccc(Cn2nnc3ccc4sc(C)cc4c32)c1", "note": "[Compound 19, 7-methyl-1-(3-methylbenzyl)-1H-thieno [3’,2’:3,4]benzo [1,2-d][1,2,3]triazole]", "values": [{"measurement": "IC50", "setting": "[1]; [3]", "result": 70.3, "unit": "µM"}, {"measurement": "IC50", "setting": "[2]; [4]", "result": "> 250", "unit": "µM"}]}, {"smiles": "COc1cccc(Cn2nnc3ccc4sc(C)cc4c32)c1", "note": "[Compound 20, 1-(3-methoxybenzyl)-7-methyl-1H-thieno [3’,2’:3,4]benzo [1,2-d][1,2,3]triazole]", "values": [{"measurement": "IC50", "setting": "[1]; [3]", "result": 90.2, "unit": "µM"}, {"measurement": "IC50", "setting": "[2]; [4]", "result": 186, "unit": "µM"}]}, {"smiles": "Cc1cc2c(ccc3nnn(Cc4cccc(F)c4)c32)s1", "note": "[Compound 21, 1-(3-fluorobenzyl)-7-methyl-1H-thieno [3’,2’:3,4]benzo [1,2-d][1,2,3]triazole]", "values": [{"measurement": "IC50", "setting": "[1]; [3]", "result": 172, "unit": "µM"}, {"measurement": "IC50", "setting": "[2]; [4]", "result": 465, "unit": "µM"}]}, {"smiles": "Cc1ccc(Cn2n[n+](C)c3ccc4sccc4c32)cc1", "note": "[Compound 22, 3-methyl-1-(4-methylbenzyl)-1H-thieno [3’,2’:3,4]benzo [1,2-d][1,2,3]triazol-3-ium]", "values": [{"measurement": "IC50", "setting": "[1]", "result": 1, "unit": "µM"}, {"measurement": "IC50", "setting": "[2]", "result": 39.2, "unit": "µM"}]}, {"smiles": "C[n+]1nn(Cc2ccc(Cl)cc2)c2c3ccsc3ccc21", "note": "[Compound 23, 1-(4-chlorobenzyl)-3-methyl-1H-thieno [3’,2’:3,4]benzo [1,2-d][1,2,3]triazol-3-ium]", "values": [{"measurement": "IC50", "setting": "[1]", "result": 0.47, "unit": "µM"}, {"measurement": "IC50", "setting": "[2]", "result": 4.4, "unit": "µM"}]}, {"smiles": "Cc1cccc(Cn2n[n+](C)c3ccc4sccc4c32)c1", "note": "[Compound 24, 3-methyl-1-(3-methylbenzyl)-1H-thieno [3’,2’:3,4]benzo [1,2-d][1,2,3]triazol-3-ium]", "values": [{"measurement": "IC50", "setting": "[1]; [3]", "result": 7, "unit": "µM"}, {"measurement": "IC50", "setting": "[2]; [4]", "result": 55.1, "unit": "µM"}]}, {"smiles": "Cc1ccc(Cn2n[n+](C)c3ccc4sc(C)cc4c32)cc1", "note": "[Compound 25, 3,7-dimethyl-1-(4-methylbenzyl)-1H-thieno [3’,2’:3,4]benzo [1,2-d][1,2,3]triazol-3-ium]", "values": [{"measurement": "IC50", "setting": "[1]", "result": 102, "unit": "µM"}, {"measurement": "IC50", "setting": "[2]", "result": 211, "unit": "µM"}]}, {"smiles": "Cc1cc2c(ccc3c2n(Cc2ccc(Cl)cc2)n[n+]3C)s1", "note": "[Compound 26, 1-(4-chlorobenzyl)-3,7-dimethyl-1H-thieno [3’,2’:3,4]benzo [1,2-d][1,2,3]triazol-3-ium]", "values": [{"measurement": "IC50", "setting": "[1]; [3]", "result": 13.4, "unit": "µM"}, {"measurement": "IC50", "setting": "[2]; [4]", "result": 8.1, "unit": "µM"}]}, {"smiles": "Cc1cccc(Cn2n[n+](C)c3ccc4sc(C)cc4c32)c1", "note": "[Compound 27, 3,7-dimethyl-1-(3-methylbenzyl)-1H-thieno [3’,2’:3,4]benzo [1,2-d][1,2,3]triazol-3-ium]", "values": [{"measurement": "IC50", "setting": "[1]; [3]", "result": 9.7, "unit": "µM"}, {"measurement": "IC50", "setting": "[2]; [4]", "result": 8.3, "unit": "µM"}]}, {"smiles": "COc1cccc(Cn2n[n+](C)c3ccc4sc(C)cc4c32)c1", "note": "[Compound 28, 1-(3-methoxybenzyl)-3,7-dimethyl-1H-thieno [3’,2’:3,4]benzo [1,2-d][1,2,3]triazol-3-ium]", "values": [{"measurement": "IC50", "setting": "[1]; [3]", "result": 10.6, "unit": "µM"}, {"measurement": "IC50", "setting": "[2]; [4]", "result": 54.8, "unit": "µM"}]}, {"smiles": "C[n+]1nn(Cc2cccc(Cl)c2)c2c3ccsc3ccc21", "note": "[Compound 30, 1-(3-chlorobenzyl)-3-methyl-1H-thieno [3’,2’:3,4]benzo [1,2-d][1,2,3]triazol-3-ium]", "values": [{"measurement": "IC50", "setting": "[1]", "result": 2.7, "unit": "µM"}, {"measurement": "IC50", "setting": "[2]", "result": 12.2, "unit": "µM"}]}, {"smiles": "C[n+]1nn(Cc2ccco2)c2c3ccsc3ccc21", "note": "[Compound 31, 1-(furan-2-ylmethyl)-3-methyl-1H-thieno [3’,2’:3,4]benzo [1,2-d][1,2,3]triazol-3-ium]", "values": [{"measurement": "IC50", "setting": "[1]; [3]", "result": 16.1, "unit": "µM"}, {"measurement": "IC50", "setting": "[2]; [4]", "result": 157, "unit": "µM"}]}]}
